Where two headings read alike, the source gives them in different places.
Experiments:
[1] = system: Gram-positive bacteria; assay: Geometric mean MIC and therapeutic index, Gram-positive bacteria; format: cell-based; details: Gram-positive bacteria; for GM G+ (geometric mean of the MIC values): MH broth, MIC >50 µg/mL counted as 100 µg/mL; for Therapeutic Index (TI) G+: HC10/GM
Summary of the method: (§1)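 Therapeutic index taken as the ratio of HC10 on human erythrocytes to geometric mean MIC. MICs from CLSI broth microdilution with peptides at 50 down to 0.78 µg/mL, inoculum 5 × 10^5 CFU/mL, in MH or modified LYM broth; triplicate independent experiments.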

[2] = system: S. aureus ATCC 33592
Summary of the method: (§2)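 Salt and pH tolerance was assessed by determining MICs in LYM medium containing 50–300 mM NaCl, 0.5–2.5 mM MgCl2, or at pH 4.5–6.5, alongside MH broth. The inoculum was 5 × 10^5 CFU/mL.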

[3] = system: Escherichia coli (ATCC 25922)
Summary of the method: as §2

[4] = system: S. aureus ATCC 33593
Summary of the method: as §2

[5] = system: Gram-negative bacteria; assay: Geometric mean MIC and therapeutic index, Gram-negative bacteria; format: cell-based; details: Gram-negative bacteria; for GM G− (geometric mean of the MIC values): MH broth, MIC >50 µg/mL counted as 100 µg/mL; for Therapeutic Index (TI) G−: HC10/GM
Summary of the method: as §1

[6] = system: Both Gram-positive and -negative bacteria; assay: Geometric mean MIC, therapeutic index and fold changes of MIC, whole panel of strains; format: cell-based; details: for GM G−/+ (geometric mean of the MIC values): Both Gram-positive and -negative bacteria, MIC >50 µg/mL counted as 100 µg/mL; for Therapeutic Index (TI) G−/+: HC10/GM, both Gram-positive and -negative bacteria
Summary of the method: as §1

[7] = LYM broth, 0 mM NaCl, 16 h, 37 °C
[8] = LYM broth, 50 mM NaCl, 16 h, 37 °C
[9] = LYM broth, 100 mM NaCl, 16 h, 37 °C
[10] = LYM broth, 200 mM (NaCl), 16 h, 37 °C
[11] = LYM broth, 300 mM (NaCl), 16 h, 37 °C
[12] = MH broth, 5 × 10^5 CFU/mL, 16 h, 37 °C, repeated three times

## Ac-WLAKKKKWRKWLK-NH2 [Peptide W5K08]
[1]
  GM G+ (geometric mean of the MIC values): 75.8 mg/L
  Therapeutic Index (TI) G+: 1.4
[2]; [7]
  MIC: 25 mg/L
[2]; LYM broth, 0.5 mM MgCl2
  MIC: 25 mg/L
[2]; LYM broth, 1.5 mM MgCl2
  MIC: 25 mg/L
[2]; LYM broth, 2.5 mM MgCl2
  MIC: 50 mg/L
[2]; [8]
  MIC: 50 mg/L
[2]; [9]
  MIC: 50 mg/L
[2]; [10]
  MIC: >50 mg/L
[2]; [11]
  MIC: >50 mg/L
[2]; LYM broth, pH 4.5
  MIC: 25 mg/L
[2]; LYM broth, pH 5.5
  MIC: 25 mg/L
[2]; LYM broth, pH 6.5
  MIC: 12.5 mg/L
[2]; [12]
  MIC: >50 mg/L
[3]; [7]
  MIC: 3.13 mg/L
[3]; LYM broth, 0.5 mM MgCl2
  MIC: 6.25 mg/L
[3]; LYM broth, 1.5 mM MgCl2
  MIC: 6.25 mg/L
[3]; LYM broth, 2.5 mM MgCl2
  MIC: 6.25 mg/L
[3]; [8]
  MIC: 12.5 mg/L
[3]; [9]
  MIC: 12.5 mg/L
[3]; [10]
  MIC: 50 mg/L
[3]; [11]
  MIC: >50 mg/L
[3]; LYM broth, pH 4.5
  MIC: 3.13 mg/L
[3]; LYM broth, pH 5.5
  MIC: 3.13 mg/L
[3]; LYM broth, pH 6.5
  MIC: 3.13 mg/L
[3]; [12]
  MIC: 50 mg/L
[4]; [7]
  MIC: 25 mg/L
[4]; LYM broth, 0.5 mM MgCl2
  MIC: 25 mg/L
[4]; LYM broth, 1.5 mM MgCl2
  MIC: 25 mg/L
[4]; LYM broth, 2.5 mM MgCl2
  MIC: 50 mg/L
[4]; [8]
  MIC: 50 mg/L
[4]; [9]
  MIC: 50 mg/L
[4]; [10]
  MIC: >50 mg/L
[4]; [11]
  MIC: >50 mg/L
[4]; LYM broth, pH 4.5
  MIC: 25 mg/L
[4]; LYM broth, pH 5.5
  MIC: 12.5 mg/L
[4]; LYM broth, pH 6.5
  MIC: 12.5 mg/L
[4]; [12]
  MIC: >50 mg/L
[5]
  GM G− (geometric mean of the MIC values): 50.0 mg/L
  Therapeutic Index (TI) G−: 2.2
[6]; MH broth
  GM G−/+ (geometric mean of the MIC values): 61.6 mg/L
[6]
  Therapeutic Index (TI) G−/+: 1.8

## Ac-WLKWLAKKKKWRK-NH2 [Peptide W5K05]
[1]
  GM G+ (geometric mean of the MIC values): 33.0 mg/L
  Therapeutic Index (TI) G+: 3.3
[2]; [7]
  MIC: 6.25 mg/L
[2]; LYM broth, 0.5 mM MgCl2
  MIC: 12.5 mg/L
[2]; LYM broth, 1.5 mM MgCl2
  MIC: 12.5 mg/L
[2]; LYM broth, 2.5 mM MgCl2
  MIC: 12.5 mg/L
[2]; [8]
  MIC: 12.5 mg/L
[2]; [9]
  MIC: 12.5 mg/L
[2]; [10]
  MIC: 25 mg/L
[2]; [11]
  MIC: 50 mg/L
[2]; LYM broth, pH 4.5
  MIC: 6.25 mg/L
[2]; LYM broth, pH 5.5
  MIC: 6.25 mg/L
[2]; LYM broth, pH 6.5
  MIC: 3.13 mg/L
[2]; [12]
  MIC: 50 mg/L
[3]; [7]
  MIC: 1.56 mg/L
[3]; LYM broth, 0.5 mM MgCl2
  MIC: 3.13 mg/L
[3]; LYM broth, 1.5 mM MgCl2
  MIC: 6.25 mg/L
[3]; LYM broth, 2.5 mM MgCl2
  MIC: 6.25 mg/L
[3]; [8]
  MIC: 3.13 mg/L
[3]; [9]
  MIC: 12.5 mg/L
[3]; [10]
  MIC: 50 mg/L
[3]; [11]
  MIC: >50 mg/L
[3]; LYM broth, pH 4.5
  MIC: 1.56 mg/L
[3]; LYM broth, pH 5.5
  MIC: 1.56 mg/L
[3]; LYM broth, pH 6.5
  MIC: 1.56 mg/L
[3]; [12]
  MIC: 12.5 mg/L
[4]; [7]
  MIC: 6.25 mg/L
[4]; LYM broth, 0.5 mM MgCl2
  MIC: 12.5 mg/L
[4]; LYM broth, 1.5 mM MgCl2
  MIC: 12.5 mg/L
[4]; LYM broth, 2.5 mM MgCl2
  MIC: 12.5 mg/L
[4]; [8]
  MIC: 6.25 mg/L
[4]; [9]
  MIC: 12.5 mg/L
[4]; [10]
  MIC: 25 mg/L
[4]; [11]
  MIC: 50 mg/L
[4]; LYM broth, pH 4.5
  MIC: 3.13 mg/L
[4]; LYM broth, pH 5.5
  MIC: 3.13 mg/L
[4]; LYM broth, pH 6.5
  MIC: 3.13 mg/L
[4]; [12]
  MIC: 50 mg/L
[5]
  GM G− (geometric mean of the MIC values): 12.5 mg/L
  Therapeutic Index (TI) G−: 8.7
[6]; MH broth
  GM G−/+ (geometric mean of the MIC values): 20.3 mg/L
[6]
  Therapeutic Index (TI) G−/+: 5.4

## Ac-WRKWLKWLAKKKK-NH2 [Peptide W5K02]
[1]
  GM G+ (geometric mean of the MIC values): 21.8 mg/L
  Therapeutic Index (TI) G+: 0.8
[2]; [7]
  MIC: 6.25 mg/L
[2]; LYM broth, 0.5 mM MgCl2
  MIC: 6.25 mg/L
[2]; LYM broth, 1.5 mM MgCl2
  MIC: 6.25 mg/L
[2]; LYM broth, 2.5 mM MgCl2
  MIC: 6.25 mg/L
[2]; [8]
  MIC: 6.25 mg/L
[2]; [9]
  MIC: 12.5 mg/L
[2]; [10]
  MIC: 50 mg/L
[2]; [11]
  MIC: >50 mg/L
[2]; LYM broth, pH 4.5
  MIC: 6.25 mg/L
[2]; LYM broth, pH 5.5
  MIC: 6.25 mg/L
[2]; LYM broth, pH 6.5
  MIC: 6.25 mg/L
[2]; [12]
  MIC: 25 mg/L
[3]; [7]
  MIC: 6.25 mg/L
[3]; LYM broth, 0.5 mM MgCl2
  MIC: 6.25 mg/L
[3]; LYM broth, 1.5 mM MgCl2
  MIC: 12.5 mg/L
[3]; LYM broth, 2.5 mM MgCl2
  MIC: 12.5 mg/L
[3]; [8]
  MIC: 12.5 mg/L
[3]; [9]
  MIC: 25 mg/L
[3]; [10]
  MIC: >50 mg/L
[3]; [11]
  MIC: >50 mg/L
[3]; LYM broth, pH 4.5
  MIC: 3.13 mg/L
[3]; LYM broth, pH 5.5
  MIC: 3.13 mg/L
[3]; LYM broth, pH 6.5
  MIC: 3.13 mg/L
[3]; [12]
  MIC: 12.5 mg/L
[4]; [7]
  MIC: 6.25 mg/L
[4]; LYM broth, 0.5 mM MgCl2
  MIC: 6.25 mg/L
[4]; LYM broth, 1.5 mM MgCl2
  MIC: 6.25 mg/L
[4]; LYM broth, 2.5 mM MgCl2
  MIC: 6.25 mg/L
[4]; [8]
  MIC: 6.25 mg/L
[4]; [9]
  MIC: 12.5 mg/L
[4]; [10]
  MIC: 50 mg/L
[4]; [11]
  MIC: >50 mg/L
[4]; LYM broth, pH 4.5
  MIC: 6.25 mg/L
[4]; LYM broth, pH 5.5
  MIC: 6.25 mg/L
[4]; LYM broth, pH 6.5
  MIC: 3.13 mg/L
[4]; [12]
  MIC: 25 mg/L
[5]
  GM G− (geometric mean of the MIC values): 7.2 mg/L
  Therapeutic Index (TI) G−: 2.3
[6]; MH broth
  GM G−/+ (geometric mean of the MIC values): 12.5 mg/L
[6]
  Therapeutic Index (TI) G−/+: 1.3
[6]; LYM broth, 2.5 mM MgCl2
  weakening of bactericidal efficacy (MIC): 4 fold
[6]; MH broth, in most bacteria strains
  folds higher MIC values than W5KA9W: 2–8 fold

Reference: article PMC12649549, “Sequence Permutation Generated Lysine and Tryptophan-Rich Antimicrobial Peptides with Enhanced Therapeutic Index” (Antibiotics, 2025)
